One experiment concerns the target T1, human factor Xa (Homo sapiens, UniProt P00742).
T1 construct: purchased Cosmo Bio Co., Ltd, Tokyo, Japan
The experiment is described as follows: Determination of anti-factor Xa activity (chromogenic substrate S-2222). The experiment is classed as biochemical. To be noted: 0.25 unit/ml human factor Xa, 0.4 mM S-2222, tris-HCl buffer pH 8.4, 5 min at room temperature, absorbance 405 nm; read-out: Factor Xa inhibitory activity [IC50 (nM)]. As for the experimental part:
Anti-factor Xa activity was determined according to the method of Hara et al. (Thromb. Haemost, 71, 314 (1994), with slight modifications. A 50 mM tris-HCl buffer (pH 8.4) containing 0.9% NaCl, 0.4 mM chromogenic substrate, S-2222 (Daiichi Pure Chemicals Co., Ltd., Tokyo, Japan), and a test compound were mixed, and the reaction was started by adding 0.25 unit/ml human factor Xa (Cosmo Bio Co., Ltd, Tokyo, Japan). Distilled water instead of the test compound was added to the buffer in the control group. The reaction mixture in a total volume of 0.1 ml was incubated for 5 min at room temperature. The absorbance at 405 nm was measured continuously using a 96-well microplate reader (model 550, BioRad), and the increase in absorbance for 5 min was calculated as an index of factor Xa activity.

The target of the next experiment is T2, bovine trypsin (Bos taurus, UniProt P00760).
T2 construct: purchased Sigma
T2 sequence (P00760 24-246): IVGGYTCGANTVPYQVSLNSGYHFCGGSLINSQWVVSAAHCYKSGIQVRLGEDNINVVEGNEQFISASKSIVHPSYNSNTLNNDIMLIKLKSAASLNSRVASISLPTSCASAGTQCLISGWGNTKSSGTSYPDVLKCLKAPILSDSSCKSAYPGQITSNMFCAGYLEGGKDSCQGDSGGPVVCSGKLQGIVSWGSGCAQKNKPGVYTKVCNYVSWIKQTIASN
The experiment is described as follows: Determination of anti-trypsin activity (chromogenic substrate S-2222). Format: biochemical. Conditions: bovine trypsin 0.25 μg-protein/ml, 0.4 mM S-2222, tris-HCl buffer pH 8.4, room temperature, 5 min, absorbance 405 nm. As for the experimental part: Anti-trypsin activity was determined according to the method of Taniuchi et al. [Thromb. Haemost., 79, 543 (1998)] with slight modifications. First, 85 μl of a 50 mM tris-HCl buffer (pH 8.4) containing 0.9% NaCl, 5 μl of chromogenic substrate, S-2222 (final concentration of 0.4 mM, Daiichi Pure Chemicals Co., Ltd., Tokyo, Japan) and 5 μl of a test compound were mixed, and the reaction was started by adding 5 μl of bovine trypsin (final concentration of 0.25 μg-protein/ml, Sigma). Distilled water instead of the test compound was added to the buffer in the control group. The reaction mixture in a total volume of 0.1 ml was incubated at room temperature. The absorbance at 405 nm was measured continuously using a 96-well microplate reader (model 550, BioRad), and the increase in absorbance for 5 min was calculated as an index of trypsin activity.

Counter-ions that a name gives are not always drawn.

T1 sequence (P00742 235-488 limits assumed): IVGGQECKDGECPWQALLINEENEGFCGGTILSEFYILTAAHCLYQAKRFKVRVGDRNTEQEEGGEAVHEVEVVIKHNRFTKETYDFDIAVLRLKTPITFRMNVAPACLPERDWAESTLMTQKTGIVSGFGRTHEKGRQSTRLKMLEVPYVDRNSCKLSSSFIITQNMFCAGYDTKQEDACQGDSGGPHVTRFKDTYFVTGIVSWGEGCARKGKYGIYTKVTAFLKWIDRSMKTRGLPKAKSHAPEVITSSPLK
T1 sequence (P00742 41-179 partner limits assumed): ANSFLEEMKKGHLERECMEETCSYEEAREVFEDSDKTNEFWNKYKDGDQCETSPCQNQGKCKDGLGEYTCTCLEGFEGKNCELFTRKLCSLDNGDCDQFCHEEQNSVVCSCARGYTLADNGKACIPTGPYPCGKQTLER

For orientation: IC50 means the concentration that inhibits the measured activity by half. As to `CCOC(=O)CS(=O)(=O)N(C/C=C/c1cccc(C(=N)N)c1)c1ccc(OC2CCN(C(C)=N)CC2)c(Br)c1` [Example 31, Ethyl N-[4-(1-Acetimidoylpiperidin-4-yloxy)-3-bromophenyl]-N-[3-(3-amidinophenyl)-2-(E)-propenyl]sulfamoylacetate Dihydrochloride], at human factor Xa, the IC50 was found to be 10 nM.
The same measure, in the same setting: for `CC(=N)N1CCC(Oc2ccc(N(C/C=C/c3cccc(C(=N)N)c3)S(=O)(=O)CC(=O)O)cc2)CC1` [Example 4, N-[4-(1-Acetimidoylpiperidin-4-yloxy)phenyl]-N-[3-(3-amidinophenyl)-2-(E)-propenyl]sulfamoylacetic Acid Dihydrochloride] the value was 6.4 nM; for `CC(=N)N1CCC(Oc2c(Cl)cc(N(C/C=C/c3cccc(C(=N)N)c3)S(=O)(=O)CC(=O)O)cc2Cl)CC1` [Example 49, N-[4-(1-Acetimidoylpiperidin-4-yloxy)-3,5-dichlorophenyl]-N-[3-(3-amidinophenyl)-2-(E)-propenyl]sulfamoylacetic Acid Dihydrochloride], 9.8 nM.
In the case of `CC(=N)N1CCC(Oc2ccc(N(C/C=C/c3cccc(C(=N)N)c3)C(C)C)cc2)CC1` [Example 22, 3-[3-[N-[4-(1-Acetimidoylpiperidin-4-yloxy)phenyl]-N-isopropylamino]-1-(E)-propenyl]benzamidine Trihydrochloride], the half-inhibitory concentration (IC50) on human factor Xa is 8.3 nM.
The same measure, in the same setting: in the case of `CC(=N)N1CCC(Oc2ccc(N(CCOc3cccc(C(=N)N)c3)S(=O)(=O)CC(=O)O)cc2)CC1` [Compound A, N-[4-[1-acetimidoyl-4-piperidyloxy]phenyl]-N-[2-(3-amidinophenoxy)ethyl]sulfamoylacetic acid dihydrochloride salt, reference compound] it was 130 nM.
Take `CCOC(=O)CS(=O)(=O)N(C/C=C/c1cccc(C(=N)N)c1)c1ccc(OC2CCN(C(C)=N)CC2)c(F)c1` [Example 10, Ethyl N-[4-(1-Acetimidoylpiperidin-4-yloxy)-3-fluorophenyl]-N-[3-(3-amidinophenyl)-2-(E)-propenyl]sulfamoylacetate Dihydrochloride]: the IC50 on human factor Xa came to 4.6 nM.
`CC(=N)N1CCC(Oc2ccc(N(C/C=C/c3cccc(C(=N)N)c3)S(=O)(=O)CC(=O)O)cc2C)CC1` [Example 55, N-[4-(1-Acetimidoylpiperidin-4-yloxy)-3-methylphenyl]-N-[3-(3-amidinophenyl)-2-(E)-propenyl]sulfamoylacetic Acid Dihydrochloride]: on human factor Xa, the IC50 turned out to be 5 nM.
Regarding `CC(=N)N1CCC(Oc2ccc(N(C/C(F)=C/c3cccc(C(=N)N)c3)S(=O)(=O)CC(=O)O)cc2)CC1` [Example 57, N-[4-(1-Acetimidoylpiperidin-4-yloxy)phenyl]-N-[3-(3-amidinophenyl)-2-fluoro-2-(Z)-propenyl]sulfamoylacetic Acid Dihydrochloride], on human factor Xa, the IC50 stood at 9.3 nM.
On the same count and under the same terms, in the case of `CC(=N)N1CCC(Oc2ccc(N(C/C=C/c3cccc(C(=N)N)c3)S(=O)(=O)CC(=O)O)cc2C(F)(F)F)CC1` [Example 54, N-[4-(1-Acetimidoylpiperidin-4-yloxy)-3-trifluoromethylphenyl]-N-[3-(3-amidinophenyl)-2-(E)-propenyl]sulfamoylacetic Acid Dihydrochloride] it was 4.6 nM; in that of `CC(=N)N1CCC(Oc2ccc(N(C/C=C/c3cccc(C(=N)N)c3)CCO)cc2)CC1` [Example 28, 3-[3-[N-[4-(1-Acetimidoylpiperidin-4-yloxy)phenyl]-N-(2-hydroxyethyl)amino]-1-(E)-propenyl]benzamidine Trihydrochloride], 9 nM.
Still for that read-out and setting: for `CCOC(=O)CS(=O)(=O)N(C/C=C/c1cccc(C(=N)N)c1)c1cc(F)c(OC2CCN(C(C)=N)CC2)c(F)c1` [Example 46, Ethyl N-[4-(1-Acetimidoylpiperidin-4-yloxy)-3,5-difluorophenyl]-N-[3-(3-amidinophenyl)-2-(E)-propenyl]sulfamoylacetate Dihydrochloride] the value was 6.8 nM.
For the molecule `CC(=N)N1CCC(Oc2ccc(N(C/C=C/c3cccc(C(=N)N)c3)S(=O)(=O)CC(=O)O)cc2Cl)CC1` [Example 9, N-[4-(1-Acetimidoylpiperidin-4-yloxy)-3-chlorophenyl]-N-[3-(3-amidinophenyl)-2-(E)-propenyl]sulfamoylacetic Acid Dihydrochloride], the values for the IC50 on human factor Xa and against bovine trypsin were 7.4 nM and 520 nM, respectively.
`CC(=N)N1CCC(Oc2ccc(N(C/C=C/c3cccc(C(=N)N)c3)S(=O)(=O)CC(=O)O)cc2C(N)=O)CC1` [Example 36, N-[4-(1-Acetimidolpiperdin-4-yloxy)-3-carbamoylphenyl]-N-[3-(3-amidinophenyl)-2-(E)-propenyl]sulfamoylacetic Acid Dihydrochloride]: the IC50 on human factor Xa is 7.1 nM.
Turning to `CCOC(=O)CS(=O)(=O)N(C/C=C/c1cc(C(=N)N)ccc1O)c1ccc(OC2CCN(C(C)=N)CC2)c(Cl)c1` [Example 41, Ethyl N-[4-(1-Acetimidoylpiperidin-4-yloxy)-3-chlorophenyl]-N-[3-(5-amidino-2-hydroxyphenyl)-2-(E)-propenyl]sulfamoylacetate Dihydrochloride], the IC50 at human factor Xa is 7.5 nM.
As to `CCOC(=O)CS(=O)(=O)N(C/C=C/c1cccc(C(=N)N)c1)c1ccc(OC2CCN(C(C)=N)CC2)cc1` [Example 3, Ethyl N-[4-(1-Acetimidoylpiperidin-4-yloxy)phenyl]-N-[3-(3-amidinophenyl)-2-(E)-propenyl]sulfamoylacetate Dihydrochloride], the IC50 at human factor Xa is 8.6 nM.
As to `CCOC(=O)CS(=O)(=O)N(C/C(F)=C/c1cccc(C(=N)N)c1)c1ccc(OC2CCN(C(C)=N)CC2)cc1` [Example 56, Ethyl N-[4-(1-Acetimidoylpiperidin-4-yloxy)phenyl]-N-[3-(3-amidinophenyl)-2-fluoro-2-(Z)-propenyl]sulfamoylacetate Dihydrochloride], the IC50 at human factor Xa amounted to 10 nM.
For the molecule `CC(=N)N1CCC(Oc2ccc(N(C/C=C/c3cccc(C(=N)N)c3)S(=O)(=O)CC(=O)O)cc2F)CC1` [Example 11, N-[4-(1-Acetimidoylpiperidin-4-yloxy)-3-fluorophenyl]-N-[3-(3-amidinophenyl)-2-(E)-propenyl]sulfamoylacetic Acid Dihydrochloride], the figures for the IC50 on human factor Xa and against bovine trypsin were 8.1 nM and 840 nM, respectively.
For the molecule `CNC(=O)c1cc(N(C/C=C/c2cccc(C(=N)N)c2)S(=O)(=O)CC(=O)O)ccc1OC1CCN(C(C)=N)CC1` [Example 38, N-[4-(1-Acetimidoylpiperidin-4-yloxy)-3-(N′-methylcarbamoyl)phenyl]-N-[3-(3-amidinophenyl)-2-(E)-propenyl]sulfamoylacetic Acid Dihydrochloride], the IC50 at human factor Xa stood at 8.7 nM.
As for `CC(=N)N1CCC(Oc2c(F)cc(N(C/C=C/c3cccc(C(=N)N)c3)S(=O)(=O)CC(=O)O)cc2F)CC1` [Example 47, N-[4-(1-Acetimidoylpiperidin-4-yloxy)-3,5-difluorophenyl]-N-[3-(3-amidinophenyl)-2-(E)-propenyl]sulfamoylacetic Acid Dihydrochloride], at human factor Xa, the IC50 was 3.7 nM.
Still for that read-out and setting: for `CC(=N)N1CCC(Oc2ccc(N(C/C=C/c3cccc(C(=N)N)c3)S(=O)(=O)CC(=O)O)cc2C(C)C)CC1` [Example 34, N-[4-(1-Acetimidoylpiperidin-4-yloxy)-3-isopropylphenyl]-N-[3-(3-amidinophenyl)-2-(E)-propenyl]sulfamoylacetic Acid Dihydrochloride] the value was 10 nM.
The same measure, in the same setting: for `CCOC(=O)CS(=O)(=O)N(C/C=C/c1cccc(C(=N)N)c1)c1ccc(OC2CCN(C(C)=N)CC2)c(C(=O)OCC)c1` [Example 29, Ethyl N-[4-(1-Acetimidoylpiperidin-4-yloxy)-3-ethoxycarbonylphenyl]-N-[3-(3-amidinophenyl)-2-(E)-propenyl]sulfamoylacetate Dihydrochloride] the value was 9 nM.
Take `CCOC(=O)CS(=O)(=O)N(C/C=C/c1cccc(C(=N)N)c1)c1ccc(OC2CCN(C(C)=N)CC2)c(Cl)c1` [Example 8, Ethyl N-[4-(1-Acetimidoylpiperidin-4-yloxy)-3-chlorophenyl]-N-[3-(3-amidinophenyl)-2-(E)-propenyl]sulfamoylacetate Dihydrochloride]: the IC50 at human factor Xa turned out to be 4.5 nM.
`CCOC(=O)CN(C/C=C/c1cccc(C(=N)N)c1)c1ccc(OC2CCN(C(C)=N)CC2)cc1` [Example 23, Ethyl 2-[N-[4-(1-Acetimidoylpiperidin-4-yloxy)phenyl]-N-[3-(3-amidinophenyl)-2-(E)-propenyl]amino]acetate Trihydrochloride]: at human factor Xa, the 50% inhibitory concentration (IC50) came out at 8.3 nM.

(Values after patent publication US6555556B1, “Benzamidine derivatives” (Sankyo Company, Limited, priority 1999, dated 2003).)
